Experiments:
β-hematin = test: β-Hematin inhibition assay (BHIA), cell-free NP-40 mediated; type: biochemical; settings: mean of n = 3
Experimental: page 20: fold to attain six assay concentrations of 100-0.001 μg/mL. […] was used as the reference compound in this assay. The highest concentration of DMSO, which was used as the negative control, had no measurable effect on cell viability. After 44 hours of exposure of the cells to the test compounds, a solution of MTT was added. This was followed by an additional 4 hours of incubation at 37 °C. The assay plates were centrifuged, medium removed, and DMSO was added to the crystals. The amount of formazan was ascertained by measuring the absorbance at 540 nm. GraphPad Prism software was then used to generate IC50 values through a non-linear dose-response curve analysis. β-Hematin Inhibition Assay 20 mM stock solutions of controls and test compounds were made in DMSO. A solution […] was added to every well in columns 1-11 of a 96-well plate. 140 μL of water and 40 μL of 305.5 μM NP-40 were added to column 12 to mediate the formation of beta-hematin. 20 μL of test compounds (20 mM) were added to column 12 and 100 μL of this solution serially diluted to column 2, leaving column 1 blank (0 μM of test compound). 178.8 μL aliquot of hematin stock was suspended in 20 ml of a 1 M acetate buffer at pH 4.9. 100 μL of this hematin […] pH 7.4 and 50% pyridine) and 60 μL of acetone were added to all wells. The absorbances of plate wells were recorded at 405 nm on a SpectraMax plate reader. Sigmoidal dose-response curves with variable slopes were fitted to the absorbance data using GraphPad Prism to obtain the IC50 values for each compound. In vitro Microsomal Stability Assay The in vitro microsomal stability assay was performed in duplicate in a 96-well micro titre […] individually in human (pool of 50, mixed gender), rat (pool of 711, male Sprague Dawley) and mouse (pool of 1634, male CD1) liver microsomes (final protein concentration of 0.4 mg/mL; Xenotech, Kansas, USA), suspended in 0.1M phosphate buffer (pH 7.4). Incubations were S20

[1] = In vitro microsomal stability, human liver microsomes; type: in vitro ADME; settings: 1 μM, 0.4 mg/mL protein
Experimental: Xenotech, Kansas, USA), suspended in 0.1 M phosphate buffer (pH 7.4). (Details of this assay are described in the Supporting Information.) page 20: fold to attain six assay concentrations of 100-0.001 μg/mL. […] was used as the reference compound in this assay. The highest concentration of DMSO, which was used as the negative control, had no measurable effect on cell viability. After 44 hours of exposure of the cells to the test compounds, a solution of MTT was added. This was followed by an additional 4 hours of incubation at 37 °C. The assay plates were centrifuged, medium removed, and DMSO was added to the crystals. The amount of formazan was ascertained by measuring the absorbance at 540 nm. GraphPad Prism software was then used to generate IC50 values through a non-linear dose-response curve analysis. β-Hematin Inhibition Assay 20 mM stock solutions of controls and test compounds were made in DMSO. A solution […] was added to every well in columns 1-11 of a 96-well plate. 140 μL of water and 40 μL of 305.5 μM NP-40 were added to column 12 to mediate the formation of beta-hematin. 20 μL of test compounds (20 mM) were added to column 12 and 100 μL of this solution serially diluted to column 2, leaving column 1 blank (0 μM of test compound). 178.8 μL aliquot of hematin stock was suspended in 20 ml of a 1 M acetate buffer at pH 4.9. 100 μL of this hematin suspension was then added into each well, and the plates were incubated for ±5 hrs at 37°C. Subsequently, 32 μL of pyridine solution (20% water, 20% acetone, 10% 2M HEPES buffer at pH 7.4 and 50% pyridine) and 60 μL of acetone were added to all wells. The absorbances of plate wells were recorded at 405 nm on a SpectraMax plate reader. Sigmoidal dose-response curves with variable slopes were fitted to the absorbance data using GraphPad Prism to obtain the IC50 values for each compound. In vitro Microsomal Stability Assay The in vitro microsomal stability assay was performed in duplicate in a 96-well micro titre […] individually in human (pool of 50, mixed gender), rat (pool of 711, male Sprague Dawley) and mouse (pool of 1634, male CD1) liver microsomes (final protein concentration of 0.4 mg/mL; Xenotech, Kansas, USA), suspended in 0.1M phosphate buffer (pH 7.4). Incubations were S20 page 21: started by addition of NADPH (1 mM) as cofactor and shaken for 30 minutes at 37 °C. The reactions were then quenched by adding 300 μL of ice-cold acetonitrile containing internal standard (carbamazepine, 0.0236 μg/mL) and centrifuged. The supernatant was transferred to a fresh 96-well plate and analysed by LC-MS/MS (Agilent Rapid Resolution HPLC, AB SCIEX 4500 MS). The relative loss of parent compound over time was monitored and plots (concentration vs. time) were prepared per compound to determine the first order rate constant for compound depletion. This was in turn used to calculate half-life, in vitro intrinsic clearance and in vivo hepatic extraction ratio.6 Metabolite Identification Studies […] microsomes (MLM, male mouse CD1, Lot No. 1510043, Xenotech), magnesium chloride (5 mM) and NADPH (1 mM) in sodium phosphate buffer (100 mM, pH 7.4) for 60 minutes while shaking. The samples were then prepared by ice-cold acetonitrile precipitation, centrifuged, and filtered for LC-MS/MS analysis. […] Fluorescence Live-cell Microscopy […] […]

| SMILES | IC50 (β-hematin) [µM] | Microsomal EH (hepatic extraction ratio), human [1] |
| --- | --- | --- |
| CCN(CCNc1cc2[nH]c(C3CCCC3)nc2cn1)Cc1ccc(Cl)cc1O [Compound 1, 5-Chloro-2-(((2-((2-cyclopentyl-1H-imidazo[4,5-c]pyridin-6-yl)amino)ethyl)(ethyl)amino)methyl)phenol] | 18 | 0.60 |
| CCN(CCNc1cc2[nH]c(C3CC3)nc2cn1)Cc1ccc(Cl)cc1O [Compound 5, 5-Chloro-2-(((2-((2-cyclopropyl-1H-imidazo[4,5-c]pyridin-6-yl)amino)ethyl)(ethyl)amino)methyl)phenol] | 16 | 0.54 |
| CCN(CCNc1cc2[nH]c(C3(C)CC3)nc2cn1)Cc1ccc(Cl)cc1O [Compound 6, 5-Chloro-2-((ethyl(2-((2-(1-methylcyclopropyl)-1H-imidazo[4,5-c]pyridin-6-yl)amino)ethyl)amino)methyl)phenol] | 33 | 0.71 |

More lines, now with the values ahead:

| IC50 (β-hematin) [µM] | Microsomal EH (hepatic extraction ratio), human [1] | SMILES |
| --- | --- | --- |
| 9 | 0.85 | CCN(CCNc1cc2[nH]c(-c3cccc(C(F)(F)F)c3)nc2cn1)Cc1ccc(Cl)cc1O [Compound 14, 5-Chloro-2-((ethyl(2-((2-(3-(trifluoromethyl)phenyl)-1H-imidazo[4,5-c]pyridin-6-yl)amino)ethyl)amino)methyl)phenol] |
| 65 | 0.80 | CCN(CCNc1cc2[nH]c(-c3ccc(C(F)(F)F)nc3)nc2cn1)Cc1ccc(Cl)cc1O [Compound 19, 5-Chloro-2-((ethyl(2-((2-(6-(trifluoromethyl)pyridin-3-yl)-1H-imidazo[4,5-c]pyridin-6-yl)amino)ethyl)amino)methyl)phenol] |

Reference: paper PMC10111423, “Antimalarial Imidazopyridines Incorporating an Intramolecular Hydrogen Bonding Motif: Medicinal Chemistry and Mechanistic Studies” (ACS Infectious Diseases, 2023)
